Reference: patent publication US11739098B2 (BRISTOL-MYERS SQUIBB COMPANY, priority 2017, dated 2023)

What was measured:
Assay type in all cases: cell-based
human TLR7 = target: T1, human TLR7 (Homo sapiens, UniProt Q9NYK1); assay: TLR7 inhibition reporter assay (HEK-Blue cells, SEAP reporter, gardiquimod stimulation); conditions: HEK-Blue cells overexpressing human TLR7, SEAP reporter, gardiquimod 7.5 μM
T1 construct: host or cells: HEK-Blue cells (HEK293-derived reporter line)
T1 sequence (Q9NYK1 27-1049): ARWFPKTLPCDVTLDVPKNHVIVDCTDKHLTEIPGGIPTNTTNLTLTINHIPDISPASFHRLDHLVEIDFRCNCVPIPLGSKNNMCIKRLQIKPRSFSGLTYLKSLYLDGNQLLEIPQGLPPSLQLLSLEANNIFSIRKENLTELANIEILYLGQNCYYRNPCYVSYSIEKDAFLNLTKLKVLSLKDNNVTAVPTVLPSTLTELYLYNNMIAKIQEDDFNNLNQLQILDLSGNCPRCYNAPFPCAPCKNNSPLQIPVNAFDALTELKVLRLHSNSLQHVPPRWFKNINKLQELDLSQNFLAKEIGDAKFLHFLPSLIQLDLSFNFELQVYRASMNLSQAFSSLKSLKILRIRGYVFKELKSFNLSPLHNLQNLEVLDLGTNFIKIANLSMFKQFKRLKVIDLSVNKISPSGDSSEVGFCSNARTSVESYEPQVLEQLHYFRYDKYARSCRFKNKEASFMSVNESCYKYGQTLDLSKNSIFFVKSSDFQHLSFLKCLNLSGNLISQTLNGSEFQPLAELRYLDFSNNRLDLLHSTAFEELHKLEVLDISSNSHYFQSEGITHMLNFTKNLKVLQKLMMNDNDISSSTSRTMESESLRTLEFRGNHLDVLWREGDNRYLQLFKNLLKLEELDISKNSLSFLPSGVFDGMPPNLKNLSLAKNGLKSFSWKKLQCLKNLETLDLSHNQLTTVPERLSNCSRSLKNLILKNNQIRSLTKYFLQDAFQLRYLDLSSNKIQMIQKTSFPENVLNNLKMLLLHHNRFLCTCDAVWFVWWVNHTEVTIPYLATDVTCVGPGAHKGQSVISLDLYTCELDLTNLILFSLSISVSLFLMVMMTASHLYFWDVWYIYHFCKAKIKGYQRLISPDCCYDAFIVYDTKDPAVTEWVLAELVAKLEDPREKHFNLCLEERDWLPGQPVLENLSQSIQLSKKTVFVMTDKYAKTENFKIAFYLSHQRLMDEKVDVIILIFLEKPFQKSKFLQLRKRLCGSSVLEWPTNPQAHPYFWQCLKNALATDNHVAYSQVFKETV
Summary of the method: (§1)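 Read-out is SEAP activity in HEK-Blue detection medium after 22 h at 37 °C, converted to percent inhibition against agonist-plus-DMSO and reference-inhibitor controls. Cells saw compound (0.05 nM–50 μM, 30 min, room temperature) before gardiquimod 7.5 μM, R848 15.9 μM or ODN2006 5 nM for TLR7, TLR8 and TLR9, respectively.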

human TLR8 = target: T2, human TLR8 (Homo sapiens, UniProt Q9NR97); assay: TLR8 inhibition reporter assay (HEK-Blue cells, SEAP reporter, R848 stimulation); conditions: HEK-Blue cells overexpressing human TLR8, SEAP reporter, R848 15.9 μM
T2 construct: host or cells: HEK-Blue cells (HEK293-derived reporter line)
T2 sequence (Q9NR97 27-1041): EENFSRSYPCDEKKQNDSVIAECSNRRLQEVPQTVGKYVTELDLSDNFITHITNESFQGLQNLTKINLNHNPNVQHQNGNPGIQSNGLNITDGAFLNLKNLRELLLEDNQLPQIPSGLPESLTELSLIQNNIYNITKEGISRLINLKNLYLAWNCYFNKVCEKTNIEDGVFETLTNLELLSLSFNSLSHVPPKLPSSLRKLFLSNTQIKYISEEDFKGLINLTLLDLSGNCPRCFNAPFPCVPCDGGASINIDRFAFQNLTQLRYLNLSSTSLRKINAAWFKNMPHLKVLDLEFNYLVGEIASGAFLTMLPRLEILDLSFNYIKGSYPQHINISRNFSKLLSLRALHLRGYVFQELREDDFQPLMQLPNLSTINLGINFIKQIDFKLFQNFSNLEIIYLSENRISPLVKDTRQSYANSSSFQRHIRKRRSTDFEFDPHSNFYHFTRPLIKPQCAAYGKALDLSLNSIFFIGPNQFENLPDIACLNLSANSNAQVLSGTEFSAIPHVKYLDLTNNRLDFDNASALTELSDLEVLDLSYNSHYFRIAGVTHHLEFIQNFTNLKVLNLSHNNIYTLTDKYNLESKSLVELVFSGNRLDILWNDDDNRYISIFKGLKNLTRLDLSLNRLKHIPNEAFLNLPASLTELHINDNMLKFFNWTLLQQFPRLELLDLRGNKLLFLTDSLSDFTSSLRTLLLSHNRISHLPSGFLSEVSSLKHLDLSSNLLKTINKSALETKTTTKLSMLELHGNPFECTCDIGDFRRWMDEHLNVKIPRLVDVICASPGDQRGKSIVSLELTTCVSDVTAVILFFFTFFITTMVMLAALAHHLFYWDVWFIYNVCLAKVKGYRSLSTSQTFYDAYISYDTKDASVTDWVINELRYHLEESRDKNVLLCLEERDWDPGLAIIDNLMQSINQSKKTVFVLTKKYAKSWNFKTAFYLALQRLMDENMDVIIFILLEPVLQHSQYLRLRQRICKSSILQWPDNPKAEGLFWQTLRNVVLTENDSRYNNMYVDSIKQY
Summary of the method: as §1

human TLR9 = target: T3, human TLR9 (Homo sapiens, UniProt Q9NR96); assay: TLR9 inhibition reporter assay (HEK-Blue cells, SEAP reporter, ODN2006 stimulation); conditions: HEK-Blue cells overexpressing human TLR9, SEAP reporter, ODN2006 5 nM
T3 construct: host or cells: HEK-Blue cells (HEK293-derived reporter line)
T3 sequence (Q9NR96 26-1032): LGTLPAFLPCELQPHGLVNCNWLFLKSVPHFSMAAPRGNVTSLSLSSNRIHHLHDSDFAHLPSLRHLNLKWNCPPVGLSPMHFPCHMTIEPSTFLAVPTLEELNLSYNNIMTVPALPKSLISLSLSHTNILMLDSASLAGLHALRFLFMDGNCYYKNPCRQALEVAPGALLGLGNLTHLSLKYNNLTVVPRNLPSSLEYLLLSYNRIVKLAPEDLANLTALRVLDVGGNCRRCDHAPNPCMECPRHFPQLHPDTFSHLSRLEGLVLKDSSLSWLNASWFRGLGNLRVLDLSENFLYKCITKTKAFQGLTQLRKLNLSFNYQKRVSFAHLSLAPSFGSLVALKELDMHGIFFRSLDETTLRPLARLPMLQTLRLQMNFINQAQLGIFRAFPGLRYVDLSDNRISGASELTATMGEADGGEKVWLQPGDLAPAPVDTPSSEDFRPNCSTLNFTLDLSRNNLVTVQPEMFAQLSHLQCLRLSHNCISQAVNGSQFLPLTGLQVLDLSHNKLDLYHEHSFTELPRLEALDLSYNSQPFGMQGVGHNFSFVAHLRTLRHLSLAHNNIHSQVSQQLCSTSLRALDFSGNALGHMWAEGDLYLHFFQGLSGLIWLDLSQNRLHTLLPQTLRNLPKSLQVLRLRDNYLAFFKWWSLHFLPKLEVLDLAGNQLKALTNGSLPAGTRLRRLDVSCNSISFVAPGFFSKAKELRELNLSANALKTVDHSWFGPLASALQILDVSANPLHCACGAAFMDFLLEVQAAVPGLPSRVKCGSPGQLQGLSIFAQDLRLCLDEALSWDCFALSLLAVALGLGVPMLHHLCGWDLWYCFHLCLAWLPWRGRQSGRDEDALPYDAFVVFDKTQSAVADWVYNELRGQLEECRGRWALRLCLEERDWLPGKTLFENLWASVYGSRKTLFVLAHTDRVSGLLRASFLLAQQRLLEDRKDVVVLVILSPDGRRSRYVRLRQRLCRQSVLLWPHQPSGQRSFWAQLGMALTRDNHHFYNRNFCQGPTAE
Summary of the method: as §1

Compound | IC50 (human TLR7) | IC50 (human TLR8) | IC50 (human TLR9)
CC(C)c1c(-c2ccnc3[nH]ncc23)[nH]c2ccc(C3CCN(Cc4ccc(Oc5ncccn5)cc4)CC3)cc12 [Example 899, 4-(3-isopropyl-5-(1-(4-(pyrimidin-2-yloxy)benzyl)piperidin-4-yl)-1H-indol-2-yl)-1H-pyrazolo[3,4-b]pyridine] | < 100 nM | < 100 nM | 100 to 1000 nM
CC(C)c1c(-c2ccnc3[nH]ncc23)[nH]c2ccc(C3CCN(C(=O)CCN(C)C)CC3)cc12 [Example 643, 3-(dimethylamino)-1-(4-(3-isopropyl-2-(1H-pyrazolo[3,4-b]pyridin-4-yl)-1H-indol-5-yl)piperidin-1-yl)propan-1-one] | < 100 nM | < 100 nM | 100 to 1000 nM
CC(C)c1c(-c2ccc3nccn3c2)[nH]c2ccc(C3CCN(C(=O)[C@H]4CCCNC4)CC3)cc12 [Example 640, (S)-(4-(2-(imidazo[1,2-a]pyridin-6-yl)-3-isopropyl-1H-indol-5-yl)piperidin-1-yl)(piperidin-3-yl)methanone] | < 100 nM | 100 to 1000 nM | 1000 to 50000 nM
CN(C)CC(=O)N1CCC(c2ccc3[nH]c(-c4ccnc5[nH]ncc45)c(CC(F)F)c3c2)CC1 [Example 517, 1-(4-(3-(2,2-difluoroethyl)-2-(1H-pyrazolo[3,4-b]pyridin-4-yl)-1H-indol-5-yl)piperidin-1-yl)-2-(dimethylamino)ethan-1-one] | 100 to 1000 nM | < 100 nM | 100 to 1000 nM
CC(C)c1c(-c2cc(Cl)c3ncccc3c2)[nH]c2ccc(C3CCN(C(=O)CN(C)C)CC3)cc12 [Example 512, 1-(4-(2-(8-chloroquinolin-6-yl)-3-isopropyl-1H-indol-5-yl)piperidin-1-yl)-2-(dimethylamino)ethan-1-one] | < 100 nM | < 100 nM | 1000 to 50000 nM
CNC(=O)c1cn2cc(-c3[nH]c4ccc(C5CCNCC5)cc4c3C(C)C)cc(C)c2n1 [Example 264, 6-(3-isopropyl-5-(piperidin-4-yl)-1H-indol-2-yl)-N,8-dimethylimidazo[1,2-a]pyridine-2-carboxamide] | < 100 nM | < 100 nM | 100 to 1000 nM

Now from value to compound:

IC50 (human TLR7) | IC50 (human TLR8) | IC50 (human TLR9) | Compound
< 100 nM | < 100 nM | 1000 to 50000 nM | Cc1nnn2ccc(-c3[nH]c4ccc(C5CCN(CC(=O)N(C)C)CC5)cc4c3C(C)C)cc12 [Example 318, 2-(4-(3-isopropyl-2-(3-methyl-[1,2,3]triazolo[1,5-a]pyridin-5-yl)-1H-indol-5-yl)piperidin-1-yl)-N,N-dimethylacetamide]
< 100 nM | < 100 nM | 1000 to 50000 nM | Cc1cc(-c2[nH]c3ccc(C4CCN(C(=O)C[C@@H](C)O)CC4)cc3c2C(C)C)cn2nnnc12 [Example 594, (R)-3-hydroxy-1-(4-(3-isopropyl-2-(8-methyltetrazolo[1,5-a]pyridin-6-yl)-1H-indol-5-yl)piperidin-1-yl)butan-1-one]
< 100 nM | < 100 nM | 1000 to 50000 nM | CNC(=O)CN1CCC(c2ccc3[nH]c(-c4ccc5ncnn5n4)c(C(C)C)c3c2)CC1 [Example 277, 2-(4-(2-([1,2,4]triazolo[1,5-b]pyridazin-6-yl)-3-isopropyl-1H-indol-5-yl)piperidin-1-yl)-N-methylacetamide]
< 100 nM | 100 to 1000 nM | > 50000 nM | CNC(=O)CN1CCC(c2ccc3[nH]c(-c4ccc5c(cnn5C)c4C)c(C(C)C)c3c2)CC1 [Example 365, 2-(4-(2-(1,4-dimethyl-1H-indazol-5-yl)-3-isopropyl-1H-indol-5-yl)piperidin-1-yl)-N-methylacetamide]
< 100 nM | < 100 nM | 1000 to 50000 nM | Cc1nnn2ccc(-c3[nH]c4ccc(C5CCN(C6COC6)CC5)cc4c3C(C)C)cc12 [Example 743, 5-(3-isopropyl-5-(1-(oxetan-3-yl)piperidin-4-yl)-1H-indol-2-yl)-3-methyl-[1,2,3]triazolo[1,5-a]pyridine]
< 100 nM | < 100 nM | 1000 to 50000 nM | CC(C)c1c(-c2cn(C)c3ncccc23)[nH]c2ccc(C3CCN(CC(C)(C)O)CC3)cc12 [Example 750, 1-(4-(3-isopropyl-2-(1-methyl-1H-pyrrolo[2,3-b]pyridin-3-yl)-1H-indol-5-yl)piperidin-1-yl)-2-methylpropan-2-ol]
< 100 nM | < 100 nM | 1000 to 50000 nM | Cc1c(-c2[nH]c3ccc(C4CCN(CC(=O)N(C)C)CC4)cc3c2C(C)C)ccc2c1cnn2C [Example 382, 2-(4-(2-(1,4-dimethyl-1H-indazol-5-yl)-3-isopropyl-1H-indol-5-yl)piperidin-1-yl)-N,N-dimethylacetamide]
< 100 nM | < 100 nM | 1000 to 50000 nM | CNC(=O)CN1CCC(c2ccc3[nH]c(-c4cc(C)n5nccc5c4)c(C(C)C)c3c2)CC1 [Example 443, 2-(4-(3-isopropyl-2-(7-methylpyrazolo[1,5-a]pyridin-5-yl)-1H-indol-5-yl)piperidin-1-yl)-N-methylacetamide]
